# In PubChem BioAssay (NCI):
# Values joined by “and” are separate entries in the source; they are usually repeats but may differ in a detail not shown here. Equal entries are not always repeated.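 Compound exposure: 48 hours, 5 concentrations, 96-well plates. Here, GI50 denotes the concentration required for 50% inhibition of growth. TGI is the concentration that stops growth completely.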
# Columns and labels:
# Test in all cases: inhibition of tumour cell growth, NCI panel, 48 h
# [1] = system: COLO 205 colon
# [2] = system: HCC-2998 colon
# [3] = system: HOP-62 NSCLC
# [4] = system: KM12 colon
# [5] = system: NCI-H460 lung
# [6] = system: SF-295 CNS
# [7] = system: SN12C renal
# [8] = system: U251 CNS
# [9] = system: UACC-257 melanoma
# [10] = system: NCI/ADR-RES ovarian
Structure (SMILES),GI50 [1],TGI [1],TGI [2],TGI [3],TGI [4],TGI [5],TGI [6],TGI [7],GI50 [8],TGI [8],TGI [9],GI50 [2],GI50 [3],GI50 [4],GI50 [5],GI50 [10],TGI [10],GI50 [6],GI50 [7],GI50 [9]
CC1=C2C(=CC(C)(C)C2O)C(=O)C(C)(O)C12CC2 (stereo not drawn),19.1 nM,0.0621 µM,0.0268 µM,0.0447 µM,0.109 µM,0.0412 µM,0.0342 µM,0.146 µM,7.75 nM,0.102 µM,0.0442 µM,–,–,–,–,–,–,–,–,–
CN(C)c1ccc2nc3ccc(=[N+](C)C)cc-3sc2c1,497 nM and 470 nM,1.96 µM and 5.3 µM,17.8 µM and 36 µM,15.9 µM and 21.9 µM,19.6 µM and 15.7 µM,14.9 µM and > 37.5 µM,10.3 µM and 10.2 µM,7.05 µM and 12.6 µM,248 nM and 341 nM,2.23 µM and 11.2 µM,0.711 µM and 2.36 µM,0.745 µM and 6.32 µM,2.47 µM and 4.89 µM,724 nM and 696 nM,431 nM and 1030 nM,0.408 µM and 0.563 µM,23.1 µM and 14.2 µM,329 nM and 934 nM,710 nM and 1380 nM,219 nM and 411 nM
O=CN/C=C/c1ccc(O)c(O)c1,–,> 100 µM,> 100 µM,> 100 µM,> 100 µM,> 100 µM,> 100 µM,> 100 µM,–,> 100 µM,> 100 µM,–,–,–,–,–,–,–,–,–
CCOC(=O)NC(=O)c1cn(CCCCCCOC(=O)NCCCCCCNC(=O)OCCCCCCn2cc(C(=O)NC(=O)OCC)c(=O)[nH]c2=O)c(=O)[nH]c1=O,–,> 100 µM,> 100 µM,> 100 µM,> 100 µM,> 100 µM,> 100 µM,> 100 µM,–,> 100 µM,> 100 µM,–,–,–,–,–,–,–,–,–
O=C1c2c(O)cccc2C(C2OC(CO)C(O)C(O)C2O)c2cc(CO)cc(O)c21 (stereo not drawn),–,> 100 µM,> 100 µM,> 100 µM,> 100 µM,> 100 µM,> 100 µM,> 100 µM,–,> 100 µM,> 100 µM,–,–,–,–,–,> 100 µM,–,–,–
COC(=O)c1cc2ccc(OC(C)=O)c(OC(C)=O)c2cn1,–,36.3 µM,44.6 µM,42.7 µM,33.6 µM,39.7 µM,–,21.3 µM,12700 nM,28.2 µM,29.2 µM,–,–,–,–,27.3 µM,70 µM,42100 nM,6910 nM,–
N#CC(c1nc2ccccc2nc1Cl)S(=O)(=O)c1ccccc1 (stereo not drawn),–,> 100 µM,> 100 µM,> 100 µM,> 100 µM,> 100 µM,–,> 100 µM,–,> 100 µM,> 100 µM,–,–,–,–,–,–,–,–,–
C/C=C(/COC(C)=O)C(=O)OC1C=C(C=O)C(C)(C)C=C1C (stereo not drawn),–,> 100 µM,> 100 µM,–,> 100 µM,> 100 µM,> 100 µM,> 100 µM,–,> 100 µM,> 100 µM,–,–,–,–,–,> 100 µM,–,–,–
Cc1ccc(N2C(=O)C3C=CC(n4[nH]c(=O)n(Cc5ccccc5)c4=O)CC3C2=O)cc1 (stereo not drawn),–,> 100 µM,> 100 µM,> 100 µM,> 100 µM,> 100 µM,> 100 µM,> 100 µM,–,> 100 µM,> 100 µM,–,–,–,–,–,–,–,–,–
COC(=O)c1cc(Cl)ccc1NC(=O)c1ccc([N+](=O)[O-])cc1,–,–,> 100 µM,38.8 µM,51.7 µM,> 100 µM,6.1 µM,–,–,22.2 µM,> 100 µM,–,–,–,–,–,–,–,–,–
COC(=O)CCC(NC(=S)N/N=C/c1ccco1)C(=O)OC (stereo not drawn),–,> 100 µM,> 100 µM,> 100 µM,> 100 µM,> 100 µM,> 100 µM,> 100 µM,–,> 100 µM,> 100 µM,–,–,–,–,–,–,–,–,–
NC(=O)c1c(NC(=O)c2ccc3c(c2)OCO3)sc2c1CCC(=O)C2,2490 nM,7.42 µM,> 100 µM,> 100 µM,–,–,6.71 µM,> 100 µM,467 nM,> 100 µM,–,3.45 µM,4.11 µM,–,–,2.2 µM,> 100 µM,2310 nM,3030 nM,–
CC(C)c1cccc2sc(NC(=O)C(=O)C(C#N)c3cccc4ccccc34)nc12 (stereo not drawn),–,> 100 µM,> 100 µM,> 100 µM,> 100 µM,> 100 µM,> 100 µM,> 100 µM,–,> 100 µM,> 100 µM,–,–,–,–,–,–,–,–,–
CCCOC(=O)N1CCN(/[N+]([O-])=N/Oc2ccc([N+](=O)[O-])cc2[N+](=O)[O-])CC1,2590 nM,6.21 µM,–,6.4 µM,5.66 µM,8.82 µM,14.9 µM,6.94 µM,2030 nM,3.96 µM,24.2 µM,–,2.58 µM,2010 nM,2540 nM,3.31 µM,> 100 µM,3760 nM,2580 nM,9520 nM
C/C(CC(=O)Nc1ccc(Cl)cc1)=N\NC(N)=S,–,> 100 µM,75.7 µM,> 100 µM,> 100 µM,> 100 µM,> 100 µM,–,–,> 100 µM,> 100 µM,–,–,–,–,–,–,–,–,–
COC(=O)C1=CC2C(=O)OC1CC2C#N (stereo not drawn),–,> 100 µM,> 100 µM,> 100 µM,> 100 µM,> 100 µM,> 100 µM,> 100 µM,–,> 100 µM,> 100 µM,–,–,–,–,–,–,–,–,–
O=C(Nc1ccc(Cl)c(Cl)c1)O/N=C\c1c(Cl)ccc([N+](=O)[O-])c1Cl,2400 nM,4.81 µM,–,11 µM,3.21 µM,7.68 µM,8.14 µM,8.52 µM,1680 nM,3.14 µM,2.86 µM,–,3.07 µM,1620 nM,2630 nM,4.33 µM,17.2 µM,2800 nM,2590 nM,1460 nM
COc1ccc2c(c1)C(=O)c1c-2c(N(C)C)nc2ccccc12,> 100000 nM,> 100 µM,> 100 µM,> 100 µM,> 100 µM,> 100 µM,–,> 100 µM,> 100000 nM,> 100 µM,> 100 µM,> 100 µM,> 100 µM,> 100000 nM,> 100000 nM,> 100 µM,> 100 µM,–,95300 nM,> 100000 nM
